Test systems include BT-549 breast; HOP-92 NSCLC; K-562 leukemia; NCI-H226 lung; NCI-H23 lung; OVCAR-4 ovarian; OVCAR-5 ovarian; SNB-19 CNS; UO-31 renal; SR leukemia.
Holding throughout (test): NCI tumour cell line growth inhibition, 48 h

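Dose response: 5 concentrations. Exposure: 48 h. Format: 96-well plates. Endpoint: linear interpolation; highest concentration if not reached. At the TGI there is no net growth.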

The results in this text go back to PubChem BioAssay (NCI).

In the case of `CCc1cc(Cc2cc(CC)c(NC(=O)C(=O)CC(=O)c3sc(-c4cccnc4)nc3C)c(CC)c2)cc(CC)c1NC(=O)C(=O)CC(=O)c1sc(-c2cccnc2)nc1C`, the TGI with BT-549 breast, in the test with HOP-92 NSCLC, in the test on K-562 leukemia, in the test on NCI-H226 lung, in the test with NCI-H23 lung and in the test with OVCAR-4 ovarian was over 100 µM throughout. The TGI with OVCAR-5 ovarian, in the test with SNB-19 CNS and in the test on UO-31 renal was over 100 µM throughout.

On to `O=C(NC(Cc1ccccc1)(Cc1ccc(O)cn1)C(=O)O)c1ccccc1` (centres undefined), for which the TGI with BT-549 breast, in the test with HOP-92 NSCLC, in the test on K-562 leukemia, with NCI-H226 lung, with NCI-H23 lung and with OVCAR-4 ovarian was over 100 µM throughout. Also, the TGI in the test with OVCAR-5 ovarian, with SNB-19 CNS and with UO-31 renal was over 100 µM each time.

On to `O=C1NC(=S)NC(=O)C1C(c1ccc(O)cc1)C1C(=O)NC(=S)NC1=O`, for which the TGI with BT-549 breast, in the test with HOP-92 NSCLC, in the test on K-562 leukemia, in the test with NCI-H226 lung, with NCI-H23 lung and with OVCAR-4 ovarian was over 100 µM in each case. Moreover, the TGI in the test on OVCAR-5 ovarian, in the test with SNB-19 CNS and in the test on UO-31 renal was over 100 µM throughout.

Consider `CC(C)=C[C@H]1CCC2(OCCO2)[C@]1(C)COCc1ccccc1`, for which the TGI in the test on BT-549 breast was over 100 µM; in the test on NCI-H226 lung, 46.8 µM; in the test on NCI-H23 lung it was over 100 µM; in the test with OVCAR-4 ovarian, over 100 µM; in the test on OVCAR-5 ovarian it was 82.1 µM; in the test with SNB-19 CNS, over 100 µM. For the same compound, the TGI with UO-31 renal was over 100 µM.

For `O=c1cc(N2CCCC2)[nH]c(=O)n1-c1cccc(Cl)c1`, the TGI in the test on BT-549 breast, in the test on HOP-92 NSCLC, with K-562 leukemia, in the test with NCI-H226 lung, with NCI-H23 lung and in the test with OVCAR-4 ovarian was over 100 µM in each case. For the same compound, the TGI with OVCAR-5 ovarian and with SNB-19 CNS was over 100 µM throughout.

On to `CC(C)=C[C@H]1CCC2(OCCO2)[C@]1(C)CO`, for which the TGI in the test on BT-549 breast, with NCI-H226 lung, in the test with NCI-H23 lung, in the test on OVCAR-4 ovarian, in the test on OVCAR-5 ovarian and with SNB-19 CNS was over 100 µM in each case. In the test with UO-31 renal, the TGI was over 100 µM.

For `CN(C)CCCN=c1c2ccccc2n(O)c2ccccc12`, the TGI with BT-549 breast was 63.4 µM; in the test on HOP-92 NSCLC it was over 100 µM; in the test with K-562 leukemia it was over 100 µM; in the test on NCI-H226 lung it was 72.7 µM; in the test with NCI-H23 lung it was over 100 µM; in the test on OVCAR-4 ovarian, over 100 µM. For the same compound, the TGI in the test on OVCAR-5 ovarian and in the test with UO-31 renal was over 100 µM each time.

Consider `N#C/C(=C/NC(N)=S)C(N)=O`, for which the TGI with BT-549 breast, with HOP-92 NSCLC, in the test on NCI-H226 lung, in the test on NCI-H23 lung, in the test with OVCAR-4 ovarian and in the test on OVCAR-5 ovarian was over 100 µM in each case. In addition, the TGI in the test with SNB-19 CNS and in the test on UO-31 renal was over 100 µM throughout.

For the compound `CC(=O)O[C@H]1C(=O)[C@@]2(C)[C@H]([C@H](OC(=O)c3ccoc3)[C@]3(O)C[C@H](OC(=O)[C@H](O)[C@@H](NC(=O)c4ccccc4)c4ccccc4)C(C)=C1C3(C)C)[C@]1(OC(C)=O)CO[C@@H]1C[C@@H]2O`, the TGI in the test with BT-549 breast was over 12.5 µM; in the test with HOP-92 NSCLC, over 12.5 µM; with K-562 leukemia, 0.156 µM; in the test on NCI-H23 lung, over 12.5 µM; with OVCAR-4 ovarian, over 12.5 µM; in the test with OVCAR-5 ovarian, over 12.5 µM. Moreover, the TGI with SNB-19 CNS and with UO-31 renal was over 12.5 µM in each case.

Take `CC(CC[C@@]1(C)C(=O)CCC2O[C@]21C)[C@H]1C[C@@H](c2ccoc2)OC1=O` (some centres undefined): the TGI in the test with HOP-92 NSCLC is 86.9 µM; in the test with K-562 leukemia it was 51 µM; in the test with NCI-H226 lung it was over 100 µM; in the test with NCI-H23 lung it was over 100 µM; with OVCAR-4 ovarian it was 55.3 µM; in the test on OVCAR-5 ovarian, over 100 µM. Besides, the TGI in the test on SNB-19 CNS is over 100 µM; in the test on SR leukemia, over 100 µM; in the test with UO-31 renal it was 35.2 µM.

Turning to `O=C(c1ccco1)N(C(=S)OCCOc1ccccc1)c1ccccc1`, the TGI was determined as 43.5 µM in the test on BT-549 breast; 37.5 µM in the test on HOP-92 NSCLC; 83.4 µM in the test on K-562 leukemia; 39.9 µM with NCI-H23 lung; 57.3 µM with OVCAR-4 ovarian; 41.1 µM with OVCAR-5 ovarian. Moreover, the results for the TGI in the test on SNB-19 CNS and in the test with UO-31 renal were 59.7 µM and 35.5 µM, respectively.

Regarding `O=Cc1ccccc1COC(=O)c1cc(C(=O)OCc2ccccc2C=O)c(C(=O)OCc2ccccc2C=O)cc1C(=O)OCc1ccccc1C=O`, the TGI in the test on HOP-92 NSCLC, in the test with K-562 leukemia, in the test with NCI-H226 lung, in the test on NCI-H23 lung, with OVCAR-4 ovarian and with OVCAR-5 ovarian was over 100 µM in each case. The TGI with SNB-19 CNS, in the test with SR leukemia and in the test on UO-31 renal was over 100 µM throughout.
